Assay results published in PubChem BioAssay (NCI).
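Cultured in 96-well plates, cells were exposed to test compound for 48 hours across five concentrations. TGI denotes the concentration required for complete inhibition of growth.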

Experiments:
Assay in all cases: NCI tumour cell line growth inhibition, 48 h
OVCAR-4 ovarian = test system: OVCAR-4 ovarian
MCF7 breast = test system: MCF7 breast
SK-OV-3 ovarian = test system: SK-OV-3 ovarian
HT29 colon = test system: HT29 colon
SW-620 colon = test system: SW-620 colon
OVCAR-5 ovarian = test system: OVCAR-5 ovarian
UACC-62 melanoma = test system: UACC-62 melanoma
UO-31 renal = test system: UO-31 renal
HS 578T breast = test system: HS 578T breast
COLO 205 colon = test system: COLO 205 colon
MDA-MB-231 breast = test system: MDA-MB-231 breast
TK-10 renal = test system: TK-10 renal
A549 NSCLC = test system: A549 NSCLC
ACHN renal = test system: ACHN renal
SF-539 CNS = test system: SF-539 CNS
HOP-62 NSCLC = test system: HOP-62 NSCLC
SNB-75 CNS = test system: SNB-75 CNS
EKVX NSCLC = test system: EKVX NSCLC
SNB-19 CNS = test system: SNB-19 CNS
IGROV1 ovarian = test system: IGROV1 ovarian
HCT-116 colon = test system: HCT-116 colon
M14 melanoma = test system: M14 melanoma
T-47D breast = test system: T-47D breast
U251 CNS = test system: U251 CNS
SK-MEL-28 melanoma = test system: SK-MEL-28 melanoma
HCC-2998 colon = test system: HCC-2998 colon
NCI-H460 lung = test system: NCI-H460 lung
KM12 colon = test system: KM12 colon
SF-268 CNS = test system: SF-268 CNS
MDA-MB-435 = test system: MDA-MB-435
786-0 renal = test system: 786-0 renal
NCI-H23 lung = test system: NCI-H23 lung
LOX IMVI melanoma = test system: LOX IMVI melanoma
DU-145 prostate = test system: DU-145 prostate
SF-295 CNS = test system: SF-295 CNS
RPMI-8226 leukemia = test system: RPMI-8226 leukemia
HL-60(TB) leukemia = test system: HL-60(TB) leukemia
UACC-257 melanoma = test system: UACC-257 melanoma
OVCAR-8 ovarian = test system: OVCAR-8 ovarian
SR leukemia = test system: SR leukemia
SK-MEL-5 melanoma = test system: SK-MEL-5 melanoma
MALME-3M melanoma = test system: MALME-3M melanoma
OVCAR-3 ovarian = test system: OVCAR-3 ovarian
SN12C renal = test system: SN12C renal
NCI/ADR-RES ovarian = test system: NCI/ADR-RES ovarian
NCI-H226 lung = test system: NCI-H226 lung
HCT-15 colon = test system: HCT-15 colon
NCI-H522 lung = test system: NCI-H522 lung
BT-549 breast = test system: BT-549 breast
PC-3 prostate = test system: PC-3 prostate
MDA-N = test system: MDA-N
MOLT-4 leukemia = test system: MOLT-4 leukemia
CCRF-CEM leukemia = test system: CCRF-CEM leukemia
SK-MEL-2 melanoma = test system: SK-MEL-2 melanoma

Cc1cnc2sn(-c3ccc(Oc4ccccc4)cc3)c(=O)c2c1
TGI (OVCAR-4 ovarian): 32.9 µM
TGI (MCF7 breast): 75.4 µM
TGI (SK-OV-3 ovarian): > 100 µM
TGI (HT29 colon): 39.6 µM
TGI (SW-620 colon): 70.7 µM
TGI (OVCAR-5 ovarian): 35.3 µM
TGI (UACC-62 melanoma): 30.7 µM
TGI (UO-31 renal): 42.8 µM
TGI (HS 578T breast): 50.9 µM
TGI (COLO 205 colon): 47.1 µM
TGI (MDA-MB-231 breast): 37.6 µM
TGI (TK-10 renal): 40.1 µM
TGI (A549 NSCLC): 46 µM
TGI (ACHN renal): 31.6 µM
TGI (SF-539 CNS): 31.7 µM
TGI (HOP-62 NSCLC): 36.7 µM
TGI (SNB-75 CNS): 34.5 µM
TGI (EKVX NSCLC): 27.7 µM
TGI (SNB-19 CNS): 46 µM
TGI (IGROV1 ovarian): 45.5 µM
TGI (HCT-116 colon): 71.4 µM
TGI (M14 melanoma): 30.8 µM
TGI (T-47D breast): 37.7 µM
TGI (U251 CNS): 46 µM
TGI (SK-MEL-28 melanoma): 33.3 µM
TGI (HCC-2998 colon): 22.8 µM
TGI (NCI-H460 lung): 23.1 µM
TGI (KM12 colon): 28 µM
TGI (SF-268 CNS): 38.2 µM
TGI (MDA-MB-435): > 100 µM
TGI (786-0 renal): 30.7 µM
TGI (NCI-H23 lung): 80.3 µM
TGI (LOX IMVI melanoma): 81 µM
TGI (DU-145 prostate): 37.8 µM
TGI (SF-295 CNS): 39.3 µM
TGI (RPMI-8226 leukemia): > 100 µM
TGI (HL-60(TB) leukemia): > 100 µM
TGI (UACC-257 melanoma): 43.7 µM
TGI (OVCAR-8 ovarian): > 100 µM
TGI (SR leukemia): 44 µM
TGI (SK-MEL-5 melanoma): 39.6 µM
TGI (MALME-3M melanoma): 9.07 µM
TGI (OVCAR-3 ovarian): 23.3 µM
TGI (SN12C renal): 43 µM
TGI (NCI/ADR-RES ovarian): 55.7 µM
TGI (NCI-H226 lung): 47.6 µM
TGI (HCT-15 colon): 23.9 µM
TGI (NCI-H522 lung): 25.3 µM
TGI (BT-549 breast): 42.2 µM
TGI (PC-3 prostate): 29.8 µM
TGI (MDA-N): 51.1 µM
TGI (MOLT-4 leukemia): > 100 µM
TGI (CCRF-CEM leukemia): > 100 µM
TGI (SK-MEL-2 melanoma): > 100 µM
